Reference: patent US20260297065A1, “AROMATIC SUBSTITUENT-CONTAINING (HETERO) ARYL-IMIDAZOLE COMPOUND, AND PREPARATION METHOD THEREFOR AND USE THEREOF” (OPEN SOURCE THERAPEUTICS, priority 2022, published 2026)

Biological target: T1, soluble epoxide hydrolase (sEH) (Homo sapiens, UniProt P34913)
T1 sequence (P34913 1-555): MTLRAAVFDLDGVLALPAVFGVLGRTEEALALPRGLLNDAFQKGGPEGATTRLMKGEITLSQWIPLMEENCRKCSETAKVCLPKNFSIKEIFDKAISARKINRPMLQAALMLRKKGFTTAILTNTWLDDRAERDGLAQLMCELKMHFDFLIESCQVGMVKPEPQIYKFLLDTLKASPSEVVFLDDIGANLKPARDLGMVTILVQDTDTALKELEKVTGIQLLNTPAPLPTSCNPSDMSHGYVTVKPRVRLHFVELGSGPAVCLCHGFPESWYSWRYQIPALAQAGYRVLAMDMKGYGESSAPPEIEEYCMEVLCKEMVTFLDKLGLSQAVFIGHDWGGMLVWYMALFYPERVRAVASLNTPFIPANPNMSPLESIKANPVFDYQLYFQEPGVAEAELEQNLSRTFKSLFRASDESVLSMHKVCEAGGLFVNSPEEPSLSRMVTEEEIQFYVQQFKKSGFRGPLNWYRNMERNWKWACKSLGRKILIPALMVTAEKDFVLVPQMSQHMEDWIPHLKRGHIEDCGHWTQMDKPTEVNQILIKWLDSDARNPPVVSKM
Experiment: in vitro biochemical activity test, sEH enzyme inhibition with EET substrate (LC-MS)
Details: 90 min pre-incubation at room temperature, 60 min reaction
Protocol: This example relates to the relationship between the structure and activity of (hetero)aryl imidazole compounds containing an aromatic substituent. Specifically, the biochemical activity of the (hetero)aryl imidazole compounds containing an aromatic substituent described in Example 1 as sEH enzyme inhibitors was evaluated by in vitro activity test experiments.
The experimental procedures for evaluating in vitro biochemical activity were described below.
The substrate used in the evaluation experiment was epoxyeicosatrienoic acid (EET). The solutions used in the evaluation experiments were Bis/Tris HCl 25 mM pH 7.0, Bis/Tris HCl 25 mM pH 7.0 containing 0.1 mg/mL BSA was used as buffer A, and Bis/Tris HCl 25 mM pH 7.0 containing 36.3 mM ZnSO4 was used as buffer B.
The specific steps of the evaluation experiment were as follows. 79 μL of buffer A was added to each well in a black 96-well plate and then 1 μL solution of the aromatic substituent-containing (hetero)aryl imidazole compound was added. Then, 10 μL sEH (1 μM) buffer A solution was added to the wells. After pre-incubation at room temperature for 90 min, 10 μL EET (10 μM) buffer A solution was added to trigger the reaction. After the mixture was allowed to react […] for 60 min, 15 μL buffer B and 180 μL acetonitrile were added to quench the reaction, followed by high-speed centrifugation and filtration for later use.
LC-MS was used to detect the concentration of EET in the samples. The final IC50 was calculated based on three independent experiments using Graphpad Prism software.

Question: `Cc1cnccc1-c1cc2nc(-c3ccc(C(F)F)cc3)[nH]c2cc1F` [Compound 11, 2-(4-(difluoromethyl)phenyl)-5-fluoro-6-(3-methylpyridin-4-yl)-1H-benzo[d]imidazole] was tested. Which IC50 did it give?
Answer: Its IC50 is 0.14 nM.

Question: `Cc1nn(C(F)F)cc1-c1cc2[nH]c(-c3ccc(C(F)(F)F)cc3)nc2c(F)c1F` [Compound 76, 2-(4-(trifluoromethyl)phenyl)-6-(3-methyl-1-(difluorometh-yl)-1H-pyrazol-4-yl)-4,5-difluoro-1H-benzo[d]imidazole] was tested. Which IC50 did it give?
Answer: Its IC50 is 0.081 nM.

Question: For `CC(C)n1nccc1-c1cc2nc(-c3ccc(S(=O)(=O)N(C)C)cc3)[nH]c2cc1F` [Compound 21, 4-(5-fluoro-6-(1-isopropyl-1H-pyrazol-5-yl)-1H-benzo[d]imidazol-2-yl)-N,N-dimethyl-benzenesulfonamide], which IC50 is on record?
Answer: Its IC50 is 0.051 nM.

Question: For `CC(C)n1nccc1-c1cc2nc(-c3ccc(S(=O)(=O)N(C)C)cc3)[nH]c2c(F)c1F` [Compound 25, 4-(4,5-difluoro-6-(1-isopropyl-1H-pyrazol-5-yl)-1H-benzo[d]imidazol-2-yl)-N,N-dimethyl-benzenesulfonamide], which IC50 is on record?
Answer: Its IC50 is 0.045 nM.

Question: How did the IC50 turn out when `Cc1nc(N2CCOCC2)ncc1-c1cc2nc(-c3ccc(S(=O)(=O)N(C)C)cc3)[nH]c2cc1F` [Compound 26, 4-(5-fluoro-6-(4-methyl-2-morpholinopyrimid-5-yl)-1H-benzo[d]imidazol-2-yl)-N,N-dimethylbenzenesulfonamide] was run?
Answer: Its IC50 is 0.081 nM.

Question: Which IC50 does the source give for `Nc1cc(C(F)F)c(-c2cc3[nH]c(-c4ccc(C(F)(F)F)cc4)nc3c(F)c2F)cn1` [Compound 77, 2-(4-(trifluoromethyl)phenyl)-6-(4-(difluoromethyl)-6-amino-pyridin-3-yl)-4,5-difluoro-1H-benzo[d]imidazole] here?
Answer: Its IC50 is 0.047 nM.

Question: `Cc1ncc(-c2cc3nc(-c4ccc(S(=O)(=O)N(C)C)cc4)[nH]c3c(F)c2F)c(Cl)n1` [Compound 28, 4-(6-(4-chloro-2-methylpyr-imid-5-yl)-4,5-difluoro-1H-benzo[d]imidazol-2-yl)-N,N-dimethylbenzenesulfonamide] was tested. Which IC50 did it give?
Answer: The IC50 was 0.046 nM.

Question: How did the IC50 turn out when `Cc1ccncc1-c1cc2[nH]c(-c3ccc(S(=O)(=O)N(C)C)cc3)nc2cc1F` [Compound 55, 4-(6-(4-methylpyridin-3-yl)-5-fluoro-1H-benzo[d]imidazol-2-yl)-N,N-dimethylbenzene-sulfonamide] was run?
Answer: The IC50 was 0.1 nM.

Question: For `CN1CCN(c2ncc(-c3cc4nc(-c5ccc(C(F)(F)F)cc5)[nH]c4cc3F)cn2)CC1` [Compound 17, 5-fluoro-6-(2-(4-methylpiper-azine-1-yl)pyrimid-5-yl)-2-(4-(trifluoromethyl)phenyl)-1H-benzo[d]imidazole], which IC50 is on record?
Answer: The IC50 was 4.8 nM.

Question: Which IC50 does the source give for `CN(C)S(=O)(=O)c1ccc(-c2nc3cc(-c4cnc(N)cc4Cl)c(F)cc3[nH]2)cc1` [Compound 40, 4-(6-(6-amino-4-chloropyr-idin-3-yl)-5-fluoro-1H-benzo [d]imidazol-2-yl)-N,N-dimeth-ylbenzenesuIfonamide] here?
Answer: The IC50 was 0.063 nM.

Question: For `Cc1nc(N(C)C)ncc1-c1cc2nc(-c3ccc(C(F)(F)F)cc3)[nH]c2cc1F` [Compound 9, 5-(5-fluoro-2-(4-(trifluoro-methyl)phenyl)-1H-benzo[d]imidazol-6-yl)-N,N,4-trimeth-ylpyrimidine-2-amine], which IC50 is on record?
Answer: The IC50 was 0.11 nM.

Question: For `CNS(=O)(=O)c1ccc(-c2nc3cc(-c4cnc(F)cc4C)c(F)cc3[nH]2)cc1` [Compound 37, 4-(5-fluoro-6-(6-fluoro-4-methylpyridin-3-yl)-1H-benzo [d]imidazol-2-yl)-N-methyl-benzenesulfonamide], which IC50 is on record?
Answer: Its IC50 is 0.38 nM.

Question: How did the IC50 turn out when `Cc1nc(N)ncc1-c1cc2nc(-c3ccc(S(=O)(=O)N(C)C)cc3)[nH]c2cc1F` [Compound 22, 4-(6-(2-amino-4-methylpyr-imid-5-yl)-5-fluoro-1H-benzo [d]imidazol-2-yl)-N,N-dimeth-yl-benzenesulfonamide] was run?
Answer: Its IC50 is 0.1 nM.

Question: For `Cc1ccc(-c2cc3nc(-c4ccc(C(=O)N5CCC[C@@H](C(N)=O)C5)cc4)[nH]c3cc2F)c(Cl)n1` [Compound 3, (R)-1-(4-(6-(2-chloro-6-meth-ylpyridin-3-yl)-5-fluoro-1H-benzo[d]imidazol-2-yl)benzo-yl)piperidine-3-carboxamide], which IC50 is on record?
Answer: Its IC50 is 7.6 nM.

Question: Which IC50 does the source give for `CC(C)c1ncncc1-c1cc2[nH]c(-c3ccc(S(=O)(=O)N(C)C)cc3)nc2cc1F` [Compound 47, 4-(5-fluoro-6-(4-isopropyl-pyrimid-5-yl)-1H-benzo[d]imidazol-2-yl)-N,N-dimethyl-benzenesulfonamide] here?
Answer: Its IC50 is 0.036 nM.

Question: For `Cc1cc(-c2cc3nc(-c4ccc(C(F)(F)F)cc4)[nH]c3cc2F)n(C)n1` [Compound 13, 6-(1,3-dimethyl-1H-pyrazol-5-yl)-5-fluoro-2-(4-(trifluoro-methyl)phenyl)-1H-benzo[d] imidazole], which IC50 is on record?
Answer: Its IC50 is 0.4 nM.

Question: How did the IC50 turn out when `CN(C)S(=O)(=O)c1ccc(-c2nc3c(F)c(F)c(-c4cnc(N)cc4Cl)cc3[nH]2)cc1` [Compound 57, 4-(6-(6-amino-4-chloropyri-din-3-yl)-4,5-difluoro-1H-benzo[d]imidazol-2-yl)-N,N-dimethylbenzenesulfonamide] was run?
Answer: Its IC50 is 0.036 nM.

Question: For `Fc1c(-c2cnc(N3CCOCC3)nc2C(F)F)cc2[nH]c(-c3ccc(C(F)(F)F)cc3)nc2c1F` [Compound 74], which IC50 is on record?
Answer: Its IC50 is 0.17 nM.

Question: With `Cc1nc(N)ncc1-c1cc2[nH]c(-c3ccc(C(F)(F)F)cc3)nc2cc1F` [Compound 42, 5-(5-fluoro-2-(4-(trifluoro-methyl)phenyl)-1H-benzo[d]imidazol-6-yl)-4-methylpyrim-idine-2-amine] as the compound, how does the IC50 read?
Answer: The IC50 was 0.14 nM.

Question: With `COc1ccc(-c2nc3cc(-c4ccncc4Cl)c(F)cc3[nH]2)cc1F` [Compound 2, 6-(3-chloropyridin-4-yl)-5-fluoro-2-(3-fluoro-4-meth-oxyphenyl)-1H-benzo[d] imidazole] as the compound, how does the IC50 read?
Answer: Its IC50 is 11 nM.

Question: With `CNc1nc(C)ncc1-c1cc2nc(-c3ccc(C(F)(F)F)cc3)[nH]c2cc1F` [Compound 7, 5-(5-fluoro-2-(4-(trifluoro-methyl)phenyl)-1H-benzo[d]imidazol-6-yl)-N,2-dimethyl-pyrimidine-4-amine] as the compound, how does the IC50 read?
Answer: The IC50 was 0.11 nM.

Question: Which IC50 does the source give for `Cc1nc(N)ncc1-c1cc2nc(-c3ccc(S(=O)(=O)N(C)C)cc3)[nH]c2c(Cl)c1F` [Compound 35, 4-(6-(2-amino-4-methylpyr-imid-5-yl)-4-chloro-5-fluoro-1H-benzo[d]imidazol-2-yl)-N,N-dimethylbenzenesulfon-amide] here?
Answer: The IC50 was 0.045 nM.

Question: Which IC50 does the source give for `Cc1ccc(-c2cc3nc(-c4ccc(C(F)(F)F)cc4)[nH]c3cc2F)cn1` [Compound 15, 5-fluoro-6-(6-methylpyridin-3-yl)-2-(4-(trifluoromethyl)-phenyl)-1H-benzo[d]imidazole] here?
Answer: The IC50 was 0.62 nM.

Question: With `CN(C)S(=O)(=O)c1ccc(-c2nc3cc(-c4ccncc4Cl)c(F)cc3[nH]2)cc1` [Compound 1, 4-(6-(3-chloropyridin-4-yl)-5-fluoro-1H-benzo[d]imidazol-2-yl)-N,N-dimethylbenzene-sulfonamide] as the compound, how does the IC50 read?
Answer: Its IC50 is 0.11 nM.

Biological target: T1, soluble epoxide hydrolase (sEH)
Experiment: PHOME assay activity test, sEH enzyme inhibition (fluorescence)
Format: biochemical
Details: PHOME 5 μM, pH 7.0; 10 min pre-incubation; test compound concentration range 20 nM-0.082 nM
Protocol: This example relates to the relationship between the structure and activity of (hetero)aryl imidazole compounds containing an aromatic substituent. Specifically, the biochemical activity of the (hetero)aryl imidazole compounds containing an aromatic substituent described herein as sEH enzyme inhibitors was evaluated by PHOME assay activity test experiment. The synthesis of the substrates and the test methods required for this test were all based on known literature reports (Analytical Biochemistry 2005, 343, 66-75).
The sEH enzyme activity inhibition experiment was performed in a low binding 96-well plate. The reaction system was 100 μL 25 mM Bis-Tris, pH 7.0, 0.1 mg/mL BSA buffer. The experimental steps of PHOME assay activity test were as follows.
First, a sEH enzyme solution with a final concentration of […] was mixed with compounds of different concentrations (test compound concentration range 20 nM-0.082 nM), and then pre-incubated on a shaker at room temperature for 10 min. The reaction was triggered by adding Phome fluorescent substrate at a final concentration of 5 μM and immediately placed in a Perkin Elmer microplate reader for dynamic monitoring for 1 hour at an excitation wavelength of 330 nm and an emission wavelength of 465 nm, with fluorescence readings at intervals of 1 minute. Graphpad Prism 9.0 software was used to calculate the slope of the fluorescence value increase in each well within 20 minutes, and the slope was used to calibrate the enzyme activity to calculate the inhibition rate of the compound on sEH enzyme activity under different concentration conditions. Finally, Graphpad Prism 9 was used to plot and calculate IC50 values.
The inhibitory activity IC50 values of some compounds against soluble epoxide hydrolase obtained by PHOME assay activity evaluation experiment are shown in Table 4.

Question: How did the IC50 turn out when `CC(=O)N1CCN(Cc2ncc(-c3cc4[nH]c(-c5ccc(C(F)(F)F)cc5)nc4c(F)c3F)c(C)n2)CC1` [Compound 98, 1-(4-((4-methyl-5-(2-(4-(trifluoromethyl)phenyl)-4,5-difluoro-1H-benzo[d]imid-azol-6-yl)pyrimidine-2-yl)-methyl)piperazin-1-yl)ethan-1-one] was run?
Answer: Its IC50 is 0.11 nM.
